Measurements taken from EP4653431A1, “PYRAZOLE DERIVATIVE, AND PHARMACEUTICALLY ACCEPTABLE SALT, STEREOISOMER, PHARMACEUTICAL COMPOSITION AND USE THEREOF” (Starg (Wuhan) Pharmaceutical Technology Co., Ltd, priority 2023, dated 2024).
Where a name gives a salt, the structure may show the parent alone.

Key:
T-47D cells = assay: In vitro T-47D cell viability assay (CellTiter-Glo); format: cell-based; conditions: Homo sapiens, T47D, 168 h, 7 days incubation
Protocol: 1640 medium, fetal bovine serum, and penicillin/streptomycin antibiotics were purchased from Wisent. CellTiter-Glo (cell viability chemiluminescence assay reagent) was purchased from Promega. The T-47D cell line was purchased from Nanjing Cobioer Biosciences Co., Ltd. Envision multimode plate reader (PerkinElmer) was used.
T-47D cells were seeded into a white 384-well plate, with 40 µL of cell suspension containing 300 T-47D cells per well. The cell plate was incubated overnight in a CO2 incubator.
The test compound was serially diluted 5-fold using a multichannel pipette to the 8th concentration, i.e., from 2000 µM to […]. The experiment was set up with duplicate wells. 78 µL of culture medium was added to an intermediate plate, and 2 µL per well of the gradient-diluted compound was transferred to the corresponding position in the intermediate plate. After mixing, 10 µL per well of the mixture was transferred to the cell plate. The concentration range of the compound transferred to the cell plate was from 10 µM to 0.026 nM. The cell plate was incubated in a CO2 incubator for 7 days. Another cell plate was prepared, and the signal value was read on the day of compound addition to serve as the maximum value (Max in the equation below) for data analysis. 10 µL per well of CellTiter-Glo reagent was added to the cell plate, and the cell plate was incubated at room temperature for 10 minutes to stabilize the luminescence signal. The signal was read using the Envision multimode plate reader.
10 µL per well of CellTiter-Glo reagent was added to the cell plate, and the cell plate was incubated at room temperature for 10 minutes to stabilize the luminescence signal. The signal was read using the Envision multimode plate reader.
The raw data were converted to inhibition rates using the equation (Sample-Min)/(Max-Min)×100%. The IC50 value was obtained by fitting the data to a four-parameter curve (using log(inhibitor) vs. response -- Variable slope model in GraphPad Prism). Table 1 provides the inhibitory activity of the compounds of the present application against T-47D cell proliferation.

[1] = Pharmacokinetic study, oral and intravenous administration in mice; set-up: species or system ICR mice; conditions: male, ICR, mouse, in vivo
Protocol: This study used ICR male mice as test animals. The plasma concentrations of the test compounds and the reference compound in mice were quantitatively determined at different time points using the LC-MS/MS method following intravenous injection or oral administration to evaluate the pharmacokinetic characteristics of the test compounds in mice.
ICR mice (male, 20-30 g, 6-8 weeks old, Beijing Charles River).
A clear solution of the test compound was administered to ICR mice (fasted overnight or fed) via tail vein injection or oral gavage. For intravenous injection, blood samples (50 µL) were collected via cheek puncture at 0 h (pre-dose) and at 0.083, 0.25, 0.5, 1, 2, 4, 6, 8, and 24 h post-dose into anticoagulant tubes containing sodium heparin. The mixtures were thoroughly vortexed at 4 °C and centrifuged at 6000 rpm for 3 minutes. For oral gavage, blood samples were collected via cheek puncture at 0 h (pre-dose) and at 0.083, 0.25, 1, 2, 4, 6, 8, and 24 h post-dose into anticoagulant tubes containing sodium heparin. The mixtures were vortexed thoroughly, and centrifuged at 6000 rpm for 3 minutes. Plasma drug concentrations were determined using the LC-MS/MS method. Pharmacokinetic parameters were calculated using Phoenix WinNonlin 8.2.0 pharmacokinetic software with a non-compartmental model and linear-logarithmic trapezoidal rule.

[2] = tested on: Human Ovarian Cancer OVCAR-3 Cell Subcutaneous Xenograft Tumor; assay: In vivo pharmacodynamic (efficacy) study in OVCAR-3 subcutaneous xenograft tumor model; conditions: oral, BID*21 days, OVCAR-3 xenograft in CB17-SCID mice
Protocol: Cell Culture: OVCAR-3 cells (human ovarian cancer cell line, sourced from Medsyin's cell bank) were cultured in RPMI-1640 medium (ATCC modified, Gibco) supplemented with 20% FBS (Gibco) and 1% penicillin/streptomycin (P.S.), in vitro at 37 °C with 5% CO2. The cells were passaged twice weekly. OVCAR-3 cells in the exponential growth phase were collected and resuspended in a mixture of PBS and Matrigel (Corning) to prepare a cell suspension with a concentration of 5×10^7 cells/mL for mouse inoculation. The volume ratio of PBS to Matrigel was 1:1.
Animals: CB17-SCID mice, female, 6-8 weeks old, weighing 18-21 grams. A total of 40 mice were inoculated. The mice were provided by Shanghai Lingchang Biotechnology Co., Ltd.
Tumor Inoculation: Each mouse was subcutaneously injected in the right flank with 0.2 mL of OVCAR-3 tumor cells (10×10^6 cells).
Experimental Metrics: The experimental metrics aimed to evaluate whether tumor growth was inhibited, delayed, or cured. The tumor diameter was measured twice weekly using a vernier caliper. The tumor volume was calculated using the formula: V=0.5a×b^2, where a and b represent the longest and shortest diameters of the tumor, respectively.
Antitumor metric TGI (%) reflects the tumor growth inhibition rate. TGI (%) was calculated as follows: TGI (%) = [(1 - (average tumor volume at the end of drug administration in a given group - average tumor volume at the start of drug administration in that group)) / (average tumor volume at the end of treatment in a vehicle control group - average tumor volume at the start of treatment in the vehicle control group)] × 100%.

Row | IC50 (T-47D cells) [nM] | bioavailability [1] [%] | AUC(0-t) ([1]; iv, 5 mg/kg) [ng·h/mL] | Vd ([1]; iv, 5 mg/kg) [L/kg] | clearance ([1]; iv, 5 mg/kg) [mL/min/kg] | half-life ([1]; iv, 5 mg/kg) [h] | AUC(0-t) ([1]; po, 30 mg/kg) [ng·h/mL] | Cmax ([1]; po, 30 mg/kg) [ng/mL] | Tmax ([1]; po, 30 mg/kg) [h] | SMILES | TGI ([2]; 35 mg/Kg) [%] | TGI ([2]; 70 mg/Kg) [%] | TGI ([2]; 140 mg/Kg) [%]
1 | 384 | 196 | 13200 | 0.52 | 6.35 | 0.93 | 155000 | 41100 | 1.08 | CON(C)Cc1nn2ccnc(Nc3cc([C@H]4CC[C@@H](OC(=O)NC(C)C)C4)[nH]n3)c2c1F [Compound 6] |  |  | 
2 | 193 | 129 | 6770 | 7.58 | 13 | 6.48 | 52600 | 22100 | 0.19 | CONCc1nn2ccnc(Nc3cc([C@H]4CC[C@@H](OC(=O)NC(C)C)C4)[nH]n3)c2c1F [Compound 5] |  |  | 
3 | 465 |  |  |  |  |  |  |  |  | CON(C)Cc1nn2ccnc(Nc3cc([C@H]4CC[C@@H](OC(=O)NC(C)C)C4)[nH]n3)c2c1C [Formate salt of compound 2] | 104.1 | 114.1 | 114.6
